Experimental data reported in ChEMBL document CHEMBL4665860, “Focused structure-activity relationship profiling around the 2-phenylindole scaffold of a cannabinoid type-1 receptor agonist-positive allosteric modulator: site-III aromatic-ring congeners with enhanced activity and solubility” (Bioorg Med Chem, 2020).
≈ marks a conversion by molar mass, not a printed value.

Legend:
Cannabinoid receptor 1 [1] = molecular target: T1, Cannabinoid receptor 1 (Homo sapiens, UniProt P21554); assay: Positive allosteric modulatory activity at human CB1 receptor expressed in CHO-K1 cells assessed as increase in CP55940-induced beta-arrestin recruitment preincubated 90 mins followed by CP55940 addition and measured after 60 mins by PathHunter assay relative to CP55940; assay type: cell-based
Cannabinoid receptor 1 [2] = molecular target: T1, Cannabinoid receptor 1; assay: Positive allosteric modulatory activity at human CB1 receptor expressed in CHO-K1 cells assessed as increase in CP55940-induced beta-arrestin recruitment […] and measured after 60 mins by PathHunter assay; assay type: cell-based
Cannabinoid receptor 1 [3] = molecular target: T1, Cannabinoid receptor 1; assay: Positive allosteric modulatory activity at human CB1 receptor expressed in CHO-K1 cells assessed as increase in CP55940-induced inhibition of forskolin-stimulated cAMP production preincubated for 30 mins followed by CP55940 addition and measured after 60 mins by Hit-hunter assay relative to control; assay type: functional, cell-based
Cannabinoid receptor 1 [4] = molecular target: T1, Cannabinoid receptor 1; assay: Positive allosteric modulatory activity at human CB1 receptor expressed in CHO-K1 cells assessed as increase in CP55940-induced inhibition of forskolin-stimulated cAMP production preincubated for 30 mins […] by Hit-hunter assay; assay type: functional, cell-based
physchem = details: PBS, pH 7.4
[5] = filed as positive allosteric modulator

T1 sequence (P21554 whole entry): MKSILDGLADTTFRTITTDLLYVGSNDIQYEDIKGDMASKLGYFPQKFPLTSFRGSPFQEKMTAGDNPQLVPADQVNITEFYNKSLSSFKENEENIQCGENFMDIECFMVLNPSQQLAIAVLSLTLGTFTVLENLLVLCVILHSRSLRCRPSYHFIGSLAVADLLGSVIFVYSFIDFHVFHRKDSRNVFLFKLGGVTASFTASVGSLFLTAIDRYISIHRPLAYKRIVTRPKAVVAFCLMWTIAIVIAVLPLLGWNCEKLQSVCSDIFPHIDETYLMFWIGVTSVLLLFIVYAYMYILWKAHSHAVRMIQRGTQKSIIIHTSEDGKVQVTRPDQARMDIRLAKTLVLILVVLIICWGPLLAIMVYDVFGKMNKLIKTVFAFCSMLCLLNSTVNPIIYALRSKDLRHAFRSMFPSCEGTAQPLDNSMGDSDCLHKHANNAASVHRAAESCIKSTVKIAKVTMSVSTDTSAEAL

| Compound | Emax (Cannabinoid receptor 1 [1]) [%] | EC50 (Cannabinoid receptor 1 [2]) [nM] | Emax (Cannabinoid receptor 1 [3]; [5]) [%] | EC50 (Cannabinoid receptor 1 [4]) [nM] | Emax (Cannabinoid receptor 1 [3]) [%] | Emax (Cannabinoid receptor 1 [1]; [5]) [%] | solubility kinetic at 2 h (physchem) [µM] |
| --- | --- | --- | --- | --- | --- | --- | --- |
| O=[N+]([O-])CC(c1ncco1)c1c(-c2ccccc2)[nH]c2ccccc12 (stereo unspecified) | 3.21 | > 10000 | 56.6 | 856 |  |  |  |
| Cn1cnc(C(C[N+](=O)[O-])c2c(-c3ccccc3)[nH]c3ccccc23)c1 (stereo unspecified) | 0.667 | > 10000 |  | > 10000 | 34.4 |  |  |
| O=[N+]([O-])CC(c1ccsc1)c1c(-c2ccccc2)[nH]c2ccccc12 (stereo unspecified) | 23.9 | 1610 | 125 | 119 |  |  |  |
| O=[N+]([O-])CC(c1nccs1)c1c(-c2ccccc2)[nH]c2ccccc12 (stereo unspecified) | 32.6 | 331 | 83.7 | 192 |  |  |  |
| Cn1cncc1C(C[N+](=O)[O-])c1c(-c2ccccc2)[nH]c2ccccc12 (stereo unspecified) | 0 | > 10000 | 46.1 | > 10000 |  |  |  |
| O=[N+]([O-])CC(c1cccc2ccccc12)c1c(-c2ccccc2)[nH]c2ccccc12 (stereo unspecified) | 0 | > 10000 | 62.2 | > 10000 |  |  |  |
| Cc1ccc(C(C[N+](=O)[O-])c2c(-c3ccccc3)[nH]c3ccccc23)cc1 (stereo unspecified) | 0 | > 10000 | 119 | 1440 |  |  |  |
| O=[N+]([O-])CC(c1ccc(N2CCOCC2)cc1)c1c(-c2ccccc2)[nH]c2ccccc12 (stereo unspecified) | 0 | > 10000 | 87.6 | > 10000 |  |  |  |
| COc1ccccc1C(C[N+](=O)[O-])c1c(-c2ccccc2)[nH]c2ccccc12 (stereo unspecified) | 37 | 1870 | 118 | 411 |  |  |  |
| O=[N+]([O-])CC(c1ccc(Cl)cc1)c1c(-c2ccccc2)[nH]c2ccccc12 (stereo unspecified) | 0 | > 10000 | 74.8 | 1320 |  |  |  |
| Cc1ccc2c(C(C[N+](=O)[O-])c3nccs3)c(-c3ccccc3)[nH]c2c1 (stereo unspecified) |  | 163 | 98.5 | 50 |  | 80.6 | 3.13 (≈ 1.14 µg/mL) |
| Cc1ccc2c(C(C[N+](=O)[O-])c3ncco3)c(-c3ccccc3)[nH]c2c1 (stereo unspecified) | 14.5 | > 10000 | 67.2 | 261 |  |  | 12.5 (≈ 4.34 µg/mL) |
| O=[N+]([O-])CC(c1ccccc1C(F)(F)F)c1c(-c2ccccc2)[nH]c2ccccc12 (stereo unspecified) |  | 792 | 86.2 | 557 |  | 68.1 |  |
| O=[N+]([O-])CC(c1ccoc1)c1c(-c2ccccc2)[nH]c2ccccc12 (stereo unspecified) | 12.9 | > 10000 | 144 | 513 |  |  |  |
| CC(C)(C)c1ccc(C(C[N+](=O)[O-])c2c(-c3ccccc3)[nH]c3ccccc23)cc1 (stereo unspecified) | 5.57 | > 10000 | 109 | 203 |  |  |  |
| O=[N+]([O-])CC(c1ccco1)c1c(-c2ccccc2)[nH]c2ccccc12 (stereo unspecified) | 28.8 | 655 | 99.8 | 245 |  |  |  |
| O=[N+]([O-])CC(c1cccs1)c1c(-c2ccccc2)[nH]c2ccccc12 (stereo unspecified) | 36.1 | 584 | 116 | 31 |  |  |  |
| O=[N+]([O-])CC(c1ccc(N2CCCC2)cc1)c1c(-c2ccccc2)[nH]c2ccccc12 (stereo unspecified) | 0 | > 10000 | 97.4 | 618 |  |  |  |
| O=[N+]([O-])CC(c1ccccc1Cl)c1c(-c2ccccc2)[nH]c2ccccc12 (stereo unspecified) |  | 1240 | 75 | 18 |  | 93.4 |  |
| Cc1ccccc1C(C[N+](=O)[O-])c1c(-c2ccccc2)[nH]c2ccccc12 (stereo unspecified) |  | 57 | 81.7 | 3 |  | 68.5 |  |
| Cc1cccc(C(C[N+](=O)[O-])c2c(-c3ccccc3)[nH]c3ccccc23)c1 (stereo unspecified) | 23.8 | 1990 | 116 | 662 |  |  |  |
